“Also recorded” adds a separate entry of the source. Strand notation (5' to 3'): a small letter for the sugar, then the base; units joined by * are phosphorothioate-linked, units joined directly phosphodiester-linked; [ ] holds rarer units or linkages, { } end groups; capitals alone tell only the bases. d = 2'-deoxy (DNA)
Experiments:
Type in all cases: in vivo, rat
[1] = system: rats with hind paw inflammation (CFA rats); assay: Mechanical allodynia (von Frey, 50% withdrawal threshold) in rats with CFA-induced hind paw inflammation
Description: (§1) In fifty-two rats anesthetized with Isoflurane (5% induction, 2.5% maintenance, 0.8 L/min O2 flow rate; Piramal Healthcare, UK), the right hind paw was injected intra-dermally with 100 μl of CFA (1:1, dissolved in normal saline; Sigma-Aldrich, Mo., USA), using a 1 ml syringe with a 25G needle attached. The animals (from now on, called CFA rats) were left to recover from anesthesia in a warm and quiet environment before relocating them in their corresponding cages.
(§2) In one set of experiments, called “preventive treatment”, four rats received a daily dose of 20 mg/kg IMT504 for five consecutive days and four weeks later one dose of 6 mg/kg (group a); a second group of four rats received one dose of 6mg/kg of IMT504 (group b) (FIG. 1A). Three days after the single injection of 6 mg/kg IMT504, all eight rats received intra-plantar CFA, after which they were tested for mechanical and cold allodynia during 21 days. At day 28, group b received an additional administration of IMT504 at a dose of 3 mg/kg and was evaluated until day 35.
In a second set of experiments, groups of rats were allocated to early or late treatment protocols (ET and LT, respectively), using a daily dose of 20 mg/kg IMT504 for five consecutive days (FIG. 2A). The ET protocol (n=5) was performed immediately after the intradermal injection of CFA in the hind paw; the LT protocol (n=5) was initiated seven days after the induction of hind paw inflammation (FIG. 2A). In all cases, animals where tested for pain-like behavior during four weeks after the induction of hind paw inflammation (days 1, 3, 7; weeks 2, 3 and 4).
In a third set of experiments, different concentrations and dosages of IMT504 were administered subcutaneously using the LT protocol (FIG. 3A). Rats were separated in three groups (n=5 per group) and treated as follows: i) a daily dose of 0.2 mg/kg of IMT504 for five consecutive days, ii) a daily dose of 2 mg/kg of IMT504 for five consecutive days, and iii) a daily dose of 2 mg/kg of IMT504 for three consecutive days. All these groups were tested for pain-like behavior up to seven weeks after induction of the hind paw inflammation.
Naïve (uninjured and untreated; n=16), CFA injured untreated (n=10), and vehicle-treated CFA (n=9) or SNI rats (n=10) were used as controls. Eight naïve rats remained untreated, four were vehicle-treated, and four received a daily dose of 20 mg/kg IMT504 for five consecutive days. Untreated CFA rats received an intradermal hind paw injection of CFA and no further treatment. Vehicle-treated CFA rats received five daily subcutaneous injections of saline (200 μl), starting seven days after injury. Vehicle-treated SNI rats received one single dose of saline (200 ul), starting seven days after injury.
For mechanical allodynia assessment, a set of von Frey filaments (Stoelting, Ill., USA) and the modified up-down method of Dixon were used, as described by Chaplan et al. (Chaplan S R, et, al., (1994) J. Neurosci Methods 53: 55-632) to establish the 50% withdrawal threshold. A withdrawal threshold of 6 g or less was considered an allodynic response.
as §1, with “seventeen” for “fifty-two”, “Scott-Cassara, Argentina),” for “Piramal Healthcare, UK),”, “MO,” for “Mo.,”, “needle.” for “needle attached.”, “(called” for “(from now on, called”, “relocating” for “relocating them”
Eight rats received a dose of 6 mg/kg IMT504 (FIGS. 2 and 3). Three days after the single injection of 6 mg/kg IMT504, all rats received intra-plantar complete Freund's Adjuvant (CFA), after which they were tested for mechanical and cold allodynia during 21-35 days. On day 28 (FIG. 1) or 28 (FIG. 2), rats receiving preventive IMT504 were administered additional IMT504 at a dose of 3 mg/kg (FIG. 1) or 2 mg/kg (FIG. 2), and assessed until days 21-35. […]

[2] = system: rats with hind paw inflammation (CFA rats); assay: Cold allodynia (acetone drop) in rats with CFA-induced hind paw inflammation
Description: as §1, §2
For cold allodynia assessment, the reaction to the application of a drop of acetone onto the plantar surface of the hind paw was used. Both frequency of withdrawal and cold score (pain-like behavior intensity) were measured. […]

[3] = system: rats with post-incisional pain; assay: Cold allodynia in rats with post-incisional pain (plantar incision); conditions: 6 mg/kg s.c. 48 h and 24 h before incision; particularly apparent 3 days after injury
From the text: In twenty-four rats anesthetized with Isoflurane (5% induction, 2.5% maintenance, 0.8 L/min O2 flow rate; Scott-Cassara, Argentina), the right hind paw plantar skin was cleaned and disinfected. This was followed by a 1-cm longitudinal incision distal to heel and extending towards the toes, as previously described (Xu J, et al., 2011, 24(5): 508-514). The incision involved both plantar skin and fascia. This was followed by identification and longitudinal incision of plantar […] muscle, leaving its insertions intact. After achieving homeostasica, skin was sutured using a 5-0 nylon suture, protected with an antibacterial cream and the animal was returned to its retention cage, under observation, until full recovery from anesthesia.
Rats were subcutaneously administered 6 mg/kg of IMT504, 48 and 24 h before implementing the post-incisional pain model. This was followed by pain-like behavior testing for up to 21 days after injury.
For cold allodynia assessment, the reaction to the application of a drop of acetone onto the plantar surface of the hind paw was used, as previously described. Frequency of withdrawal to cold stimuli was measured.

[4] = 6 mg/kg 3 days before CFA (FIG. 6, FIG. 8)
[5] = 6 mg/kg 3 days before CFA (FIG. 7)
[6] = 6 mg/kg 3 days before CFA, booster 3 mg/kg day 28
[7] = 20 mg/kg daily x5 plus single 6 mg/kg three days before CFA

IMT504: synthetic phosphorothioate oligodeoxynucleotide with sequence 5′-TCATCATTTTGTCATTTTGTCATT-3′ (SEQ ID No 1) (DNA dT*dC*dA*dT*dC*dA*dT*dT*dT*dT*dG*dT*dC*dA*dT*dT*dT*dT*dG*dT*dC*dA*dT*dT)
period after induction of inflammation during which IMT504 prevents mechanical allodynia [1, 4]: 7 days
time of reaching allodynic levels comparable to vehicle-treated rats [1, 4]: 14 days after injury
day by which mechanical withdrawal thresholds are fully comparable to injured untreated or vehicle-treated rats ([1]; 6 mg/kg 3 days before CFA, both groups (FIG. 10A, 11A)): 21 days
lack of mechanical allodynia until ([1]; 6 mg/kg 3 days before CFA, group with booster on day 21 (FIG. 11A)): 7 days after injury
lack of mechanical allodynia until ([1]; 6 mg/kg 3 days before CFA, group with booster on day 28 (FIG. 10A)): 3 days after injury
effect of a booster dose of 2 mg/kg IMT504 21 days after injury on mechanical allodynia ([1]; 6 mg/kg 3 days before CFA, booster 2 mg/kg day 21 (FIG. 11A)): completely restored the anti-allodynic effect
effect of an additional dose of 3 mg/kg IMT504 28 days after injury on mechanical allodynia ([1]; 6 mg/kg 3 days before CFA, booster 3 mg/kg day 28, observed one day after re-administration): quickly reverted; also recorded: complete reduction in mechanical and cold allodynia; also recorded: full recovery of basal withdrawal thresholds; also recorded: completely restored the anti-allodynic effect
recovery of basal mechanical withdrawal thresholds, ET protocol ([1]; 20 mg/kg daily x5, started immediately after CFA): reaching basal levels seven days after treatment initiation; also recorded: reaching basal thresholds seven days after injury and onwards
recovery of basal mechanical withdrawal thresholds, LT protocol ([1]; 20 mg/kg daily x5, started seven days after CFA): fully achieved seven days after initiation of the treatment; also recorded: recovery of basal mechanical withdrawal thresholds starting one week after treatment (two weeks after injury)
withdrawal thresholds of contralateral hind paws ([1]; IMT504-treated CFA rats, data not shown): remained normal; also recorded: normal basal values
start of progressive recovery towards basal mechanical withdrawal thresholds ([1]; LT protocols (0.2 or 2 mg/kg, three or five daily doses from day 7 after CFA), s.c.): 10 day after injury
recovery of mechanical withdrawal threshold ([1]; LT, 0.2 mg/kg daily x5, s.c., 0.2 mg/kg): slower, incomplete recovery, never reaching basal withdrawal thresholds; also recorded: not reaching the basal level
difference to vehicle-treated CFA rats towards the end of the assay ([1]; LT, 0.2 mg/kg daily x5, p>0.05): no significant differences with the vehicle-treated CFA rats
reaching basal ipsilateral withdrawal thresholds, counted from initiation of treatment ([1]; LT, three or five daily doses of 2 mg/kg, s.c.): reaching basal ipsilateral withdrawal thresholds at day five after initiation of the treatment and onwards
persistence of basal withdrawal thresholds ([1]; LT, three or five daily doses of 2 mg/kg, s.c., 2 mg/kg): maintained basal withdrawal thresholds throughout the whole assay period; also recorded: maintaining such a condition throughout the entire assay (seven weeks)
time at which mechanical withdrawal thresholds reach allodynic levels ([1]; preventive IMT504 (20 mg/kg x5 + 6 mg/kg, or 6 mg/kg only) three days before CFA, both groups): 14 days after injury
mechanical allodynia twenty-one days after injury ([1]; preventive IMT504, both groups, comparable to untreated CFA-rats): all animals reached basal allodynic levels
lack / prevention of mechanical allodynia after CFA-induced inflammation ([1]; preventive IMT504: 20 mg/kg daily x5 plus 6 mg/kg four weeks later, or 6 mg/kg only, CFA three days after the 6 mg/kg dose, both groups): prevention of mechanical allodynia; also recorded: lack of mechanical allodynia during the first three days
time from which basal withdrawal thresholds are recovered ([1]; single dose of 2 mg/kg, one week after CFA): 21 days after injury
recovery of basal withdrawal thresholds ([1]; single dose of 2 mg/kg, one week after CFA, 2 mg/kg): slower, but finally complete, recovery of basal withdrawal thresholds; also recorded: slower, incomplete recovery, never reaching basal withdrawal thresholds
period after induction of inflammation during which IMT504 prevents cold allodynia [2, 5]: 1 days
time of reaching cold allodynic levels comparable to vehicle-treated rats [2, 5]: 7 days after injury
effect of an additional dose of 3 mg/kg IMT504 28 days after injury on cold allodynia [2, 6]: full anti-allodynic effect; also recorded: complete reduction in mechanical and cold allodynia
time at which the anti-allodynic effect (cold) of the reinforcement dose is lost [2, 6]: 35 days after injury
progression of cold allodynia [2, 7]: very slow increase in cold withdrawal frequency; also recorded: slow progression towards cold allodynia
time of peak of cold allodynia [2, 7]: 21 days after injury
frequency of cold allodynia ([2]; both preventive groups, twenty days after injury): 60%
time of peak of cold allodynia ([2]; single dose of 6 mg/kg only, three days before CFA): 21 days after injury
protection against cold allodynia ([2]; single dose of 6 mg/kg only, three days before CFA, 6 mg/kg): more moderate anti-allodynic effect; also recorded: milder protection against cold allodynia
cold allodynia vs injured vehicle-treated rats, days 1 and 3 after injury ([2]; single preventive dose of 6 mg/kg (FIG. 11B)): significantly lower than that observed in injured vehicle-treated rats
cold allodynia vs vehicle-treated rats, from day 7 on ([2]; single preventive dose of 6 mg/kg (FIG. 11B), differences not statistically significant): always showed lower levels of cold allodynia than vehicle-treated rats
cold allodynia after plantar incision [3]: significant reduction in cold allodynia
